Source: US20160257997A1, “METHODS FOR WHOLE-CELL ANALYSIS OF GRAM-POSITIVE BACTERIA” (AdvanDx, Inc., priority 2009, published 2016)
{Biotin} = biotin label at the PNA N-terminus, attached through the O linker (8-amino-3,6-dioxaoctanoic acid); {PacBlue} = Pacific Blue dye label at the PNA N-terminus, attached through the O linker; {TAMRA} = TAMRA (TAM) fluorescent label at the PNA N-terminus

Assays:
MecA = experiment: PNA FISH with tyramide signal amplification (Example 4); format: cell-based, S. aureus; settings: MRSA 33591, oxacillin-induced; 500 nM total; streptavidin-HRP, AlexaFluor 594-labeled tyramide; FIG. 4
Experimental: Cell fixation and permeabilization was also performed as described in Example 1 except that prior to hybridization the slides were treated at 80° C. for 5 minutes with 75 μL of TE buffer (Tris-HCl 100 mM, EDTA, 10 mM, pH 8.0). For hybridization, 25 μL of HB** containing five biotin-labeled PNA probes (Probes 11, 12, 13, 14 and 15 (concentration of each probe was 100 nM for a total concentration of 500 nM) was applied on one slide. Another slide was probed with one biotin-labeled, C. albicans—specific rRNA-directed probe (probe 10, concentration 500 nM) in control experiment. Hybridization and washing were performed as described in Example 1. Slides were then processed with reagents commercially available from Molecular Probes (TSA Kit #25, Eugene, Oreg.) according to manufacturer's protocol. Specifically, slide-deposited cells were first incubated 30 min with 0.075 mL of Blocking Buffer (BB) then 30 min with 0.1 mL of streptavidin-HRP diluted in BB. After washing (3×5 min wash) with PBS-Tween, the cells were incubated 10 min with 0.075 mL of AlexaFluor 594-labeled tyramide solution and washed (3×5 min wash) again. A drop of MM and cover slip was then applied on air dried slides and the cells were examined by FM. […]

rRNA [1] = experiment: PNA FISH with rRNA-directed probes on S. epidermidis cells (Example 3); settings: MRSE 51625 in mixture with MRSA 43300
Experimental: In this example a mixture of MRSA 43300 and MRSE 51625 was prepared and examined using three fluorescent filters as described below. The growth and oxacillin induction of S. aureus cells was performed as described in Example 1. […] S. epidermidis was grown essentially as described for S. aureus in Example 1. Cell fixation and permeabilization of both MRSA 43300 and MRSE 51625 was performed as described in Example 1.
The remainder of the procedure was performed as described in Example 1. These images are of the same section of the slide. In each case, only the fluorescence filter was changed.

rRNA [2] = experiment: PNA FISH with rRNA-directed probes on S. aureus cells (Examples 2-3); format: cell-based
Description: Some (but not all) of the visible colonies in the slides are surrounded by a circle (slide A) or a square (Slide B). This should assist in analysis of the slides where black and white copies of the Figures are provided in lieu of color copies. In Image A-1 and A-2, the same colonies are encircled to simplify the comparison. The conditions for each of the slides examined in FIG. 2, are as follows: • A-1) MRSA 43300, Dual band filter • B-1) MSSA 29213, Dual band filter • A-2) MRSA 43300, FITC filter • B-2) MSSA 29213, FITC filter

MecA mRNA = experiment: PNA FISH of MecA mRNA in permeabilized S. aureus (Examples 1-3); format: cell-based; settings: MRSA 43300, oxacillin-induced; FIG. 1 Slides B-D; Probes 1-5 794 nM combined, Probe 2 750 nM, Probe 6 750 nM

AGAGAGCAGCATCCA (all peptide nucleic acid (PNA), 5' {Biotin}; peptide nucleic acid FISH probe, chemically synthesized) [Probe 10, Biotin-labeled C. albicans-specific rRNA-directed PNA probe, control]
fluorescent staining of bacteria after tyramide signal amplification (MecA): absence of visible bacteria

TAM-GCTTCTCGTCCGTTC (all peptide nucleic acid (PNA), 5' {TAMRA}; peptide nucleic acid FISH probe; listed as Staphylococcus aureus) [Probe 8, TAMRA-labeled S. aureus-specific rRNA-directed PNA probe]
fluorescent staining of bacteria (dual band filter) (rRNA [1]; FIG. 3 Image A): no TAMRA signal | fluorescent staining of bacteria (dual band filter) (rRNA [2]; MRSA 43300 and MSSA 29213, 500 nM, FIG. 2 Slides A-1 and B-1): Red fluorescent stained bacteria | fluorescent staining of bacteria (dual band filter) (rRNA [2]; MRSA 43300 in mixture with MRSE 51625, FIG. 3 Image A): red fluorescence

TCAATGAGCAAAGGT (all peptide nucleic acid (PNA); fluorescein label, position not given here; listed as Escherichia coli) [Probe 6, Flu-labeled E. coli specific rRNA-directed PNA probe, control]
fluorescent staining of bacteria (FITC filter) (MecA mRNA): No signal was observed

TCCTCGTCTGTTCGC (all peptide nucleic acid (PNA), 5' {PacBlue}; peptide nucleic acid FISH probe, chemically synthesized; listed as Staphylococcus epidermidis) [Probe 9]
fluorescent staining of bacteria (DAPI filter) (rRNA [1]; 500 nM, FIG. 3 Image B): Blue stained MRSE bacteria are visible
